In patent publication US10370727B2, “Point mutations in TRK inhibitor-resistant cancer and methods relating to the same” (Loxo Oncology, Inc., priority 2015, dated 2019):

What was measured:
Test in all cases: Trk enzyme assay ([33P] incorporation into poly-EAY)
Format in all cases: biochemical
[1] = target: TrkA WT (Homo sapiens, UniProt P04629); conditions: wild-type TrkA enzyme; 22° C., 60 minutes
Procedure: (§1) The assays were conducted in 96-well polypropylene v-bottom microtitre plates (Corning, Costar® 3363) in a total volume of 50 μL. […] The radiolabeled product was then captured on glass fiber filter plates (PerkinElmer, Unifilter®-96, GF/B®) and washed with 5% phosphoric acid to remove unbound radiolabel using a Tomtec MACH III Harvester 96®. After adding 35 μL/well of Bio-Safe II™ liquid scintillation cocktail (Research Products International), the plates were counted in a TopCount NXT (PerkinElmer) using a counting time of 30 s/well. The activity at each concentration of compound was expressed as percent of control (POC) and plotted versus compound concentration.

[2] = target: TrkA V573M (Homo sapiens, UniProt P04629, V573M); conditions: mutant TrkA V573M enzyme; 22° C., 60 minutes
Procedure: (§2) The activity of the various Trk compounds exemplified in Table 6 was determined by monitoring the incorporation of [^33P]PO4 from [γ-^33P]ATP into poly-EAY (Sigma-Aldrich, P3899).
as §1

[3] = target: TrkA F589L (Homo sapiens, UniProt P04629, F589L); conditions: mutant TrkA F589L enzyme; 22° C., 60 minutes
Procedure: as §2, §1

[4] = target: TrkA G595R (Homo sapiens, UniProt P04629, G595R); conditions: mutant TrkA G595R enzyme; 22° C., 60 minutes
Procedure: as §2, §1

[5] = target: TrkA G667C (Homo sapiens, UniProt P04629, G667C); conditions: mutant TrkA G667C enzyme; 22° C., 60 minutes
Procedure: as §2, §1

[6] = target: TrkA G667S (Homo sapiens, UniProt P04629, G667S); conditions: mutant TrkA G667S enzyme; 22° C., 60 minutes
Procedure: as §2, §1

[7] = target: TrkB WT (Homo sapiens, UniProt Q16620); conditions: wild-type TrkB enzyme; 22° C., 60 minutes
Procedure: as §1

[8] = target: TrkB G623R (Homo sapiens, UniProt Q16620, G623R); conditions: mutant TrkB G623R enzyme; 22° C., 60 minutes
Procedure: as §1

[9] = target: TrkC WT (Homo sapiens, UniProt Q16288, S70N); conditions: wild-type TrkC enzyme; 22° C., 60 minutes
Procedure: as §1

[10] = target: TrkC G623R (Homo sapiens, UniProt Q16288, G623R/S70N); conditions: mutant TrkC G623R enzyme; 22° C., 60 minutes
Procedure: The radiolabeled product was then captured on glass fiber filter plates (PerkinElmer, Unifilter®-96, GF/B®) and washed with 5% phosphoric acid to remove unbound radiolabel using a Tomtec MACH III Harvester 96®. After adding 35 μL/well of Bio-Safe II™ liquid scintillation cocktail (Research Products International), the plates were counted in a TopCount NXT (PerkinElmer) using a counting time of 30 s/well. The activity at each concentration of compound was expressed as percent of control (POC) and plotted versus compound concentration.

[11] = target: TrkC F617L (Homo sapiens, UniProt Q16288, F617L/S70N); conditions: mutant TrkC F617L enzyme; 22° C., 60 minutes
TrkC F617L, sequence (Q16288 32-839 S70N/F617L): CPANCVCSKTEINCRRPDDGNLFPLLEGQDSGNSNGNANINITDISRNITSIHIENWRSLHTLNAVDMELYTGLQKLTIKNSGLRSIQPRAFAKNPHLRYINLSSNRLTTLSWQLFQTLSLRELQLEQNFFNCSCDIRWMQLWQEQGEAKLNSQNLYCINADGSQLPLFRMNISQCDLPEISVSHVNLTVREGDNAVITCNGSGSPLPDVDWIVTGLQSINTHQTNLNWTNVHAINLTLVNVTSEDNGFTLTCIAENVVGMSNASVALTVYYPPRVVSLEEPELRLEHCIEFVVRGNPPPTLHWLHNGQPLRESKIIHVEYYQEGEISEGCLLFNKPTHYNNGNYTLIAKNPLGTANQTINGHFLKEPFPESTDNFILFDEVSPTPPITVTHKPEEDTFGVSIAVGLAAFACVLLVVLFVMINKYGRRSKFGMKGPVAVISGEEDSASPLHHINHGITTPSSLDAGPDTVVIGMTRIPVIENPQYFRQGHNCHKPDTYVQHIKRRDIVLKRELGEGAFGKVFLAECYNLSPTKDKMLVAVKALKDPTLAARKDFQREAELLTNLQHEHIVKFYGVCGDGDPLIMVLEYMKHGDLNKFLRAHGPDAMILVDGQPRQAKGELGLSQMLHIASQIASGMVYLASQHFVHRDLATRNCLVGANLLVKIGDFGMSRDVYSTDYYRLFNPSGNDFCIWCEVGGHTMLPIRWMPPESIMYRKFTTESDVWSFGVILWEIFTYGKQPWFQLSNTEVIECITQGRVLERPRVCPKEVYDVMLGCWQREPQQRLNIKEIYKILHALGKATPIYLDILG
Procedure: as §1

TrkC WT, sequence (Q16288 32-839 S70N): as the sequence (Q16288 32-839 S70N/F617L) above, with L586F counted along it
TrkA F589L, sequence (P04629 33-796 F589L): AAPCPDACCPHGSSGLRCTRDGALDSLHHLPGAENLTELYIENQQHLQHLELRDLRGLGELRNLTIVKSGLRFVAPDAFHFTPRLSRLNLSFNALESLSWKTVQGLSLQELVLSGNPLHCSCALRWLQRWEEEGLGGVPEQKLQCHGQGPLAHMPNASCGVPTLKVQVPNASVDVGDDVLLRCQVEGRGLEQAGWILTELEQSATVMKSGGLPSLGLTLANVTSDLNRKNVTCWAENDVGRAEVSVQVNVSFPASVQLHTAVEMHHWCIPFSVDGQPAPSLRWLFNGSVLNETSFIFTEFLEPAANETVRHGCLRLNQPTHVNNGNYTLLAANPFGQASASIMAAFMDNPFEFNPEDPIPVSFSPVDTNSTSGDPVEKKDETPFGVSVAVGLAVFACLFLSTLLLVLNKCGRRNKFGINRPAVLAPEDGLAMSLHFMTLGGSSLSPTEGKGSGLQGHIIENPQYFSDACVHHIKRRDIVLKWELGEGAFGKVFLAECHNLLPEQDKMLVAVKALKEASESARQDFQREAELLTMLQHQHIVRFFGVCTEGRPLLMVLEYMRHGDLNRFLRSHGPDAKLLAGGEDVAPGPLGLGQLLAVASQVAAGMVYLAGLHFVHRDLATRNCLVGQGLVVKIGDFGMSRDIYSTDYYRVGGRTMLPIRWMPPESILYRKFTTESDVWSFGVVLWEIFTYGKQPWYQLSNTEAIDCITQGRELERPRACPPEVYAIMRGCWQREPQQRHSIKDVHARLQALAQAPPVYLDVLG
TrkC G623R, sequence (Q16288 32-839 S70N/G623R): as the sequence (Q16288 32-839 S70N/F617L) above, with L586F, G592R counted along it
TrkA G595R, sequence (P04629 33-796 G595R): as the sequence (P04629 33-796 F589L) above, with L557F, G563R counted along it
TrkB G623R, sequence (Q16620 32-822 G623R): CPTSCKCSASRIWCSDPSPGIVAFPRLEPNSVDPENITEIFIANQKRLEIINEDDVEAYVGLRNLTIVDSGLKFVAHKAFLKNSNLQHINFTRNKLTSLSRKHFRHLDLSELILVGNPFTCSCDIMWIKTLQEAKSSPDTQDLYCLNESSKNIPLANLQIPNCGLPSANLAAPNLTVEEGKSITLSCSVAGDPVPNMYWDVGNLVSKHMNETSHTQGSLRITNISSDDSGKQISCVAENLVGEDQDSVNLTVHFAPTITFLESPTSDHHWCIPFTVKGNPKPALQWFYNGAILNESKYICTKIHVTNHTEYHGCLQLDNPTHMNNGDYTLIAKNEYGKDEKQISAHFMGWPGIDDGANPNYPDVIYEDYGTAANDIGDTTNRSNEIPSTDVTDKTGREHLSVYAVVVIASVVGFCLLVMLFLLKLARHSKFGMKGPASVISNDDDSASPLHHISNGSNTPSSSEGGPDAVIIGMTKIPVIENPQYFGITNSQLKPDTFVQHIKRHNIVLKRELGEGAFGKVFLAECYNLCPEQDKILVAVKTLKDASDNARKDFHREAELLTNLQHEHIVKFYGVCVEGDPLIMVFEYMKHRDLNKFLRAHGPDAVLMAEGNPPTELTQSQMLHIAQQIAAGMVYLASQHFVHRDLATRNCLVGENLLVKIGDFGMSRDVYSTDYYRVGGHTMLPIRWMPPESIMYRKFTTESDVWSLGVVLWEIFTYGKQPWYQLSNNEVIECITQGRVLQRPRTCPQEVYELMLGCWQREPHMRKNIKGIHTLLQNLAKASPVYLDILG
TrkB WT, sequence (Q16620 32-822): as the sequence (Q16620 32-822 G623R) above, with R592G counted along it
TrkA G667C, sequence (P04629 33-796 G667C): as the sequence (P04629 33-796 F589L) above, with L557F, G635C counted along it
TrkA V573M, sequence (P04629 33-796 V573M): as the sequence (P04629 33-796 F589L) above, with V541M, L557F counted along it
TrkA WT, sequence (P04629 33-796): as the sequence (P04629 33-796 F589L) above, with L557F counted along it
TrkA G667S, sequence (P04629 33-796 G667S): as the sequence (P04629 33-796 F589L) above, with L557F, G635S counted along it

SMILES | IC50 [1] | IC50 [2] | IC50 [3] | IC50 [4] | IC50 [5] | IC50 [6] | IC50 [7] | IC50 [8] | IC50 [9] | IC50 [10] | IC50 [11]
O=C1NCCCOc2ncc(F)cc2[C@H]2CCCN2c2ccn3ncc1c3n2 [Compound 16, (6R)-9-fluoro-13-oxa-2,11,17,21,22,25-hexaazapentacyclo[17.5.2.0^2,6.0^7,12.0^22,26]-hexacosa-1(25),7,9,11,19(26),20,23-heptaen-18-one] | < 0.5 nM | < 5 nM | < 1 nM | 0.9 nM | 1.1 nM | 0.4 nM | 2.9 nM | 0.9 nM | < 2.5 nM | 1.3 nM | < 5 nM
O=C(Nc1cnn2ccc(N3CCC[C@@H]3c3cc(F)ccc3Cl)nc12)N1CC(O)C1 [Compound 9, (R)-N-(5-(2-(2-chloro-5-fluorophenyl)pyrrolidin-1-yl)pyrazolo[1,5-a]pyrimidin-3-yl)-3-hydroxyazetidine-1-carboxamide] | 0.8 nM | 106 nM | 90.7 nM | 91.9 nM | 76.5 nM | 21.6 nM | 4.6 nM | 104 nM | < 2.5 nM | 92.6 nM | 66.5 nM
O=C1NC[C@@H](O)COc2ncc(F)cc2[C@H]2CCCN2c2ccn3ncc1c3n2 [Compound 17, (6R,15R)-9-fluoro-15-hydroxy-13-oxa-2,11,17,21,22,25-hexaazapentacyclo-[17.5.2.0^2,6.0^7,12.0^22,26]-hexacosa-1(25), 7,9,11,19(26),20,23-heptaen-18-one] | < 0.5 nM | < 5 nM | 2.1 nM | 1.5 nM | 2.6 nM | 0.7 nM | 3.6 nM | 1.1 nM | < 2.5 nM | 1.8 nM | < 5 nM
O=C(NC1CC1)c1cnn2ccc(N3CCC[C@@H]3c3cncc(F)c3)nc12 [Compound 13, (R)-N-cyclopropyl-5-(2-(5-fluoro-pyridin-3-yl)pyrrolidin-1-yl)pyrazolo [1,5-a]pyrimidine-3-carboxamide] | < 0.5 nM | 20.9 nM | 37.2 nM | 3.3 nM | 32.4 nM | 4.1 nM | 3.5 nM | 2.7 nM | < 2.5 nM | 3.1 nM | 8.7 nM
O=C(Nc1cnc2ccc(N3CCC[C@@H]3c3cc(F)ccc3F)nn12)N1CC(O)C1 [Compound 1, (R)-N-(6-(2-(2,5-difluorophenyl)pyrrolidin-1-yl)imidazo[1,2-b]pyridazin-3-yl)-3-hydroxyazetidine-1-carboxamide] |  |  |  |  |  |  | 5.7 nM | 59.7 nM | < 2.5 nM | 29.3 nM | 58 nM
CN(C)C(=O)Nc1cnn2ccc(N3CCC[C@@H]3c3cc(F)ccc3F)nc12 [Compound 8, (R)-3-(5-(2-(2,5-difluorophenyl)pyrrolidin-1-yl)pyrazolo[1,5-a]pyrimidin-3-yl)-1,1-dimethylurea] | 0.9 nM | 129 nM | 154 nM | 49.6 nM | 84.2 nM | 19.7 nM | 5 nM | 64.6 nM | < 2.5 nM | 54.9 nM | 67.1 nM
O=C(Nc1cnn2ccc(N3CCC[C@@H]3c3cccc(F)c3)nc12)N1CC(O)C1 [Compound 11, (R)-N-(5-(2-(3-fluorophenyl)pyrrolidin-1-yl)pyrazolo[1,5-a]pyrimidin-3-yl)-3-hydroxyazetidine-1-carboxamide] | 6.9 nM | 1200 nM | 1080 nM | 561 nM | 830 nM | 275 nM | 19 nM | 671 nM | 4.4 nM | 446 nM | 476 nM
O=C1NCCCOc2ccc(F)cc2[C@H]2CCCN2c2ccn3ncc1c3n2 [Compound 19, (6R)-9-fluoro-13-oxa-2,17,21,22,25-pentaazapentacyclo[17.5.2.0^2,6.0^7,12.0^22,26] hexacosa-1(25),7,9,11,19(26),20,23-heptaen-18-one] | 0.5 nM | < 5 nM | 1.1 nM | 1.2 nM | 0.9 nM | 0.3 nM | 4.4 nM | 1 nM | < 2.5 nM | 1.8 nM | 5.1 nM
NC(=O)Nc1cnc2ccc(N3CCC[C@@H]3c3cc(F)ccc3F)nn12 [Compound 3, (R)-1-(6-(2-(2,5-difluorophenyl)pyrrolidin-1-yl)imidazo[1,2-b]pyridazin-3-yl)urea] |  |  |  |  |  |  | 11.9 nM | 90 nM | 4.5 nM | 55.7 nM | 273 nM

Now from value to compound:

IC50 [1] | IC50 [2] | IC50 [3] | IC50 [4] | IC50 [5] | IC50 [6] | IC50 [7] | IC50 [8] | IC50 [9] | IC50 [10] | IC50 [11] | SMILES
 |  |  |  |  |  | 10.6 nM | 132 nM | 3.1 nM | 70.8 nM | 177 nM | CNC(=O)Nc1cnc2ccc(N3CCC[C@@H]3c3cc(F)ccc3F)nn12 [Compound 4, (R)-1-(6-(2-(2,5-difluorophenyl)pyrrolidin-1-yl)imidazo[1,2-b]pyridazin-3-yl)-3-methylurea]
< 0.5 nM | 36.5 nM | 48.3 nM | 2.7 nM | 13.3 nM | 3.2 nM | 3.1 nM | 3.1 nM | < 2.5 nM | 3.1 nM | 18.3 nM | O=C1NCCCOc2cccc(n2)[C@H]2CCCN2c2ccn3ncc1c3n2 [Compound 20, (6R)-12-oxa-2,16,20,21,24,26-hexaazapentacyclo[16.5.2.^17,11.0^2,6.0^21,25]-hexacosa-1(24),7(26),8,10,18(25),19,22-heptaen-17-one]
 |  |  |  |  |  | 5 nM | 27.5 nM | < 2.5 nM | 24.1 nM | 49.7 nM | CN(CCO)C(=O)Nc1cnc2ccc(N3CCC[C@@H]3c3cc(F)ccc3F)nn12 [Compound 6, (R)-3-(6-(2-(2,5-difluorophenyl)pyrrolidin-1-yl)imidazo[1,2-b]pyridazin-3-yl)-1-(2-hydroxyethyl)-1-methylurea]
0.5 nM | < 5 nM | 8.4 nM | 1.5 nM | 5.7 nM | 0.9 nM | 2.9 nM | 1.3 nM | < 2.5 nM | 1.5 nM | 5.4 nM | O=C1OCCOc2ncc(F)cc2[C@H]2CCCN2c2ccn3ncc1c3n2 [Compound 22, (6R)-9-fluoro-13,16-dioxa-2,11,20,21,24-pentaazapentacyclo[16.5.2.0^2,6.0^7,12.0^21,25]-pentacosa-1(24),7,9,11,18(25),19,22-heptaen-17-one]
0.9 nM | 105 nM | 103 nM | 107 nM | 89.2 nM | 27 nM | 6.5 nM | 150 nM | < 2.5 nM | 101 nM | 80.1 nM | CC1(O)CN(C(=O)Nc2cnn3ccc(N4CCC[C@@H]4c4cc(F)ccc4Cl)nc23)C1 [Compound 10, (R)-N-(5-(2-(2-chloro-5-fluorophenyl)pyrrolidin-1-yl)pyrazolo[1,5-a]pyrimidin-3-yl)-3-hydroxy-3-methylazetidine-1-carboxamide]
 |  |  |  |  |  | 4.5 nM | 34.1 nM | < 2.5 nM | 23.1 nM | 37.6 nM | CN(C)C(=O)Nc1cnc2ccc(N3CCC[C@@H]3c3cc(F)ccc3F)nn12 [Compound 2, (R)-3-(6-(2-(2,5-difluorophenyl)pyrrolidin-1-yl)imidazo[1,2-b]pyridazin-3-yl)-1,1-dimethylurea]
1.1 nM | 152 nM | 232 nM | 84.6 nM | 141 nM | 38.5 nM | 5.9 nM | 132 nM | < 2.5 nM | 95 nM | 154 nM | O=C(Nc1cnn2ccc(N3CCC[C@@H]3c3cc(F)ccc3F)nc12)N1CC(O)C1 [Compound 5, (R)-N-(5-(2-(2,5-difluorophenyl)pyrrolidin-1-yl)pyrazolo[1,5-a]pyrimidin-3-yl)-3-hydroxyazetidine-1-carboxamide]
 |  |  |  |  |  | 7 nM | 47.9 nM | < 2.5 nM | 22.7 nM | 42.5 nM | CC1(O)CN(C(=O)Nc2cnc3ccc(N4CCC[C@@H]4c4cc(F)ccc4F)nn23)C1 [Compound 7, (R)-N-(6-(2-(2,5-difluorophenyl)pyrrolidin-1-yl)imidazo[1,2-b]pyridazin-3-yl)-3-hydroxy-3-methylazetidine-1-carboxamide]
